Results as given in patent US10463664B2, “Inhibitors of HSV nucleotidyl transferases and uses therefor” (Saint Louis University, priority 2013, dated 2019).

Key:
[1] = Neutral red cytotoxicity assay in HFFs (10 day, with plaque reduction assay); type: cell-based, human; conditions: human, uninfected primary human foreskin fibroblasts (HFFs), 10 day assay
Method: HCMV plaque reduction EC50 and toxicity assays. Low passage primary HFFs were infected with HCMV strain AD169 in the presence of serial dilutions of the compounds from 0.032 to 100 μM. Ten days later the monolayers were stained with 1% neutral red solution in PBS. After rinsing, plaques were counted using a stereomicroscope and the EC50 was interpolated from the data. Cytotoxicity was measured using a plate-based assay in which compounds were added to HFFs at 0.032 to 100 μM. At the end of the incubation period, plates were stained for 1 h with a neutral red solution in PBS. The stain was then removed, the plates rinsed in PBS and dried, and dye internalized by viable cells was determined at OD550. CC50 values were interpolated from the data.
Compounds #41, 46, 49, 55, 56, and 59 and the FDA-approved, anti-HCMV drug ganciclovir were subsequently evaluated with plaque reduction and toxicity assays in HFFs. HFFs were infected with HCMV in the presence of serial dilutions of the compounds. After 10 days the cultures were stained with neutral red and plaques were counted. Compound cytotoxicity for uninfected cells was determined in the same manner except that neutral red uptake by viable cells was measured by optical density. […] The TI values for the five NTS inhibitors of HCMV ranged from 5 for compound #46 to 17 for #55 and 59. Therefore, NTS inhibitors can suppress HCMV replication in addition to inhibiting the HSVs.

[2] = Neutral red cytotoxicity assay in uninfected HFFs (14 day, with CPE assay); type: cell-based, human; conditions: human, uninfected human foreskin fibroblasts (HFFs)
Method: Anti-HCMV CPE inhibition and cytotoxicity assays. HFFs were infected with HCMV strain AD169 in the presence of serial dilutions of the compounds from 0.0192 to 60 μM. Fourteen days later the monolayers were stained with crystal violet, and retained cell density was quantified using a multiplate autoreader (BioTek). Cytotoxicity was measured the same way, except that the cells were uninfected and neutral red internalization by viable cells was measured.
Antiviral efficacy against HCMV. The ability of select HSV inhibitors to inhibit replication of another major human herpesvirus pathogen, human cytomegalovirus (HCMV) (65) was tested. This was based on the inhibitors strong suppression of HSV-1 and HSV-2 and the prediction that other members of the herpesvirus family would be sensitive to NTS inhibitors due to their shared DNA replication mechanism. Compounds #41, 46, 49, 55, 56, and 59 and the FDA-approved anti-HCMV drug ganciclovir were evaluated with crystal violet CPE and neutral red toxicity assays in HFFs. HFFs were infected with HCMV in the presence of serial dilutions of the compounds that were most inhibitory for HSVs. After 14 days the monolayers were stained and cell density was determined by OD reading. Compound cytotoxicity for uninfected cells was determined in the same manner except that neutral red uptake by viable cells was measured. […] The TI values for the four NTS inhibitors of HCMV ranged from 4 for compound #41 to 38 for #56. Therefore, NTS inhibitors can suppress HCMV replication in addition to inhibiting the HSVs.

HSV-2 = test: Time-of-addition experiment, HSV-2 in Vero cells; type: cell-based, herpes simplex virus 2; conditions: 10 μM
Method: The inventors next varied the time post-infection that the inhibitors were added to begin defining the stage(s) of viral replication targeted by the inhibitors. […] The cells were incubated until 24 hours post-infection and then infectious viral titers were determined by plaque assay and viral DNA production was determined by quantitative PCR (FIG. 5).

human RNaseH1 = molecular target: T1, human RNaseH1 (Homo sapiens, UniProt O60930); conditions: Hu et al., 2013; cited from earlier work
T1 construct: hexahistidine; made in house; host or cells: E. coli
T1 sequence (O60930 1-286): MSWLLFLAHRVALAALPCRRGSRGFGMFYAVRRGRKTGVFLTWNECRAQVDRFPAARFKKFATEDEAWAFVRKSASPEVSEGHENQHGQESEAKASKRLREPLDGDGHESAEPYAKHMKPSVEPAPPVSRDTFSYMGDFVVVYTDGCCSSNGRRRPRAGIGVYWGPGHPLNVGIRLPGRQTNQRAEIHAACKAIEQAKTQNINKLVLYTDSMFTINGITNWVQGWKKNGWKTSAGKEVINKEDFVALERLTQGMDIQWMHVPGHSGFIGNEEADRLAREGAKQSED

Cc1cc(C2CCCCC2)n(O)c(=O)c1 [Compound 41, Ciclopirox, reference compound]
CC50 at 10 days [1]: 2.9 µM | CC50 at 14 days [2]: 8.9 µM

Nc1nc2c(ncn2COCCO)c(=O)[nH]1 [ACV, Acyclovir, reference compound]
Delay of addition with no effect on inhibition of DNA replication or viral accumulation (HSV-2): ≤ 5 hours post-infection | Time of addition at which compound becomes essentially ineffective (HSV-2): 12 hours post-infection

CC(C)c1ccc(O)c(=O)c(O)c1 [Compound 46, Beta-thujaplicinol]
Effect on RNase H1 (in words) (human RNaseH1): no effect
